Reference: US11806346B2, “HTT modulators for treating Huntington's disease” (CHDI Foundation, Inc., priority 2020, dated 2023)

Each compound was assayed on tHTT (total HTT protein) (assay: Time-resolved FRET assay, total huntingtin (tHTT) detection in cell lysates). Conditions: GEN020 hESCs (mutant 48 Q repeat allele), compounds added for 48 hours, TR-FRET on lysate; read-out: tHTT EC50.
Type: cell-based, human
In short: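 TR-FRET readout on cell lysates, with the donor/acceptor ratio reflecting relative total HTT.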

EC50 | SMILES
100 to 500 nM | Cc1cn2cc(NC(=O)c3cnc(N4CC(CN5CC6C[C@]6(F)C5)C4)cn3)cc(F)c2n1 (stereo partly drawn) [Example 343, N-(8-fluoro-2-methylimidazo[1,2-a]pyridin-6-yl)-5-(3-(((1R)-1-fluoro-3-azabicyclo[3.1.0]hexan-3-yl)methyl)azetidin-1-yl)pyrazine-2-carboxamide]
500 to 1000 nM | Cc1cn2cc(NC(=O)c3cnc(N4CC[C@@H](CN(C5CC5)C5CC5)C4)cn3)cc(F)c2n1 [Example 157]
1000 to 10000 nM | Cc1cn2cc(NC(=O)c3cnc(N4CCN[C@H](C)C4)cn3)cc(F)c2n1 [Example 78]
100 to 500 nM | Cc1cn2cc(NC(=O)c3cnc(N4CCC(C5CCCN5)C4)cn3)cc(F)c2n1 (single isomer, unassigned) [Example 163]
1000 to 10000 nM | Cc1cn2cc(NC(=O)c3cnc(C#CCN(C)C)cn3)cc(F)c2n1 [Example 364, 5-[3-(Dimethylamino)prop-1-ynyl]-N-(8-fluoro-2-methyl-imidazo[1,2-a]pyridin-6-yl)pyrazine-2-carboxamide]
100 to 500 nM | Cc1cn2cc(NC(=O)c3cnc(N4CC5(CNC5)C4)cn3)nc(C)c2n1 [Example 58]
100 to 500 nM | CNCC1(F)CN(c2cnc(C(=O)Nc3cn4cc(C)nc4c(OC)n3)cn2)C1 [Example 289, 5-(3-fluoro-3-((methylamino)methyl)azetidin-1-yl)-N-(8-methoxy-2-methylimidazo[1,2-a]pyrazin-6-yl)pyrazine-2-carboxamide]
500 to 1000 nM | Cc1cn2cc(NC(=O)c3cnc(N4CCC(NC5CC5)CC4)cn3)cc(F)c2n1 [Example 51]
100 to 500 nM | Cc1cn2cc(NC(=O)c3cnc(N4CC(CN(C)C5CC5)C4)cn3)nc(C)c2n1 [Example 277]
100 to 500 nM | Cn1cc2cc(NC(=O)c3cnc(N4CC(CN5CC(F)C5)C4)cn3)cc(F)c2n1 [Example 350, N-(7-fluoro-2-methyl-2H-indazol-5-yl)-5-(3-((3-fluoroazetidin-1-yl)methyl)azetidin-1-yl)pyrazine-2-carboxamide]
500 to 1000 nM | Cc1cn2cc(NC(=O)c3cnc(N4CCC(CN(C)C5CC5)C4)cn3)nc(C)c2n1 (single isomer, unassigned) [Example 241]
500 to 1000 nM | CNC1CN(c2cnc(C(=O)Nc3cn4cc(C)nc4c(C)n3)cn2)CC1F (single isomer, unassigned) [Example 87]
< 100 nM | CNC1([C@@H]2CCN(c3cnc(C(=O)Nc4cc(F)c5nc(C)cn5c4)cn3)C2)CC1 [Example 106, (R)—N-(8-fluoro-2-methylimidazo[1,2-a]pyridin-6-yl)-5-(3-(1-(methylamino)cyclopropyl)pyrrolidin-1-yl)pyrazine-2-carboxamide]
100 to 500 nM | Cc1cn2cc(NC(=O)c3cnc(N4CCC(C5CCCN5C)C4)cn3)cc(F)c2n1 (single isomer, unassigned) [Example 237]
100 to 500 nM | CCOc1cc2nn(C)cc2cc1NC(=O)c1cnc(N2CC[C@@H](NC)C2)cn1 [Example 108, (R)—N-(6-ethoxy-2-methyl-2H-indazol-5-yl)-5-(3-(methylamino)pyrrolidin-1-yl)pyrazine-2-carboxamide]
1000 to 10000 nM | Cc1cn2cc(NC(=O)c3cnc(N4CCC5(CCCN5C)C4)cn3)cc(F)c2n1 (stereo not drawn) [Example 9]
100 to 500 nM | Cc1cn2cc(NC(=O)c3cnc(N4CC5C4CCN5C)cn3)cc(F)c2n1 (single isomer, unassigned) [Example 309]
500 to 1000 nM | CN[C@@H]1CN(c2cnc(C(=O)Nc3cc(F)c4nc(C)cn4c3)cn2)CC12CC2 [Example 372, (S)—N-(8-fluoro-2-methylimidazo[1,2-a]pyridin-6-yl)-5-(7-(methylamino)-5-azaspiro[2.4]heptan-5-yl)pyrazine-2-carboxamide]
10000 to 20000 nM | Cc1cn2cc(NC(=O)c3cnc(OC4CCNCC4(F)F)cn3)cc(F)c2n1 (stereo not drawn) [Example 213, 5-((3,3-difluoropiperidin-4-yl)oxy)-N-(8-fluoro-2-methylimidazo[1,2-a]pyridin-6-yl)pyrazine-2-carboxamide]
100 to 500 nM | COc1c(NC(=O)c2cnc(N3CC[C@H](CNC4CC4)C3)cn2)cc2cn(C)nc2c1F [Example 258, (R)-5-(3-((cyclopropylamino)methyl)pyrrolidin-1-yl)-N-(7-fluoro-6-methoxy-2-methyl-2H-indazol-5-yl)pyrazine-2-carboxamide]
< 100 nM | Cc1cn2cc(NC(=O)c3cnc(N4CC[C@@H](C5(N)CC5)C4)cn3)cc(F)c2n1 [Example 107, (R)-5-(3-(1-aminocyclopropyl)pyrrolidin-1-yl)-N-(8-fluoro-2-methylimidazo[1,2-a]pyridin-6-yl)pyrazine-2-carboxamide]
100 to 500 nM | CNC1CN(c2cnc(C(=O)Nc3cc(F)c4nc(C)cn4c3)cn2)CC1F (stereo not drawn) [Example 105]
100 to 500 nM | CNC1CN(c2ncc(C(=O)Nc3cc(F)c4nc(C)cn4c3)cn2)CC1F (stereo not drawn) [Example 332]
1000 to 10000 nM | Cc1cn2cc(NC(=O)c3cnc(N4CC[C@@H](N(C)C5CC5)C4)cn3)cc(F)c2n1 [Example 187, (R)-5-(3-(Cyclopropyl(methyl)amino)pyrrolidin-1-yl)-N-(8-fluoro-2-methylimidazo[1,2-a]pyridin-6-yl)pyrazine-2-carboxamide]
100 to 500 nM | Cc1cn2cc(NC(=O)c3cnc(N4CC5(CNCCO5)C4)cn3)cc(F)c2n1 [Example 338, N-(8-fluoro-2-methylimidazo[1,2-a]pyridin-6-yl)-5-(5-oxa-2,8-diazaspiro[3.5]nonan-2-yl)pyrazine-2-carboxamide]
100 to 500 nM | Cc1cn2cc(NC(=O)c3cnc(N4CCC(CNC5CC5)C4=O)cn3)cc(F)c2n1 (single isomer, unassigned) [Example 337]

EC50 | SMILES
500 to 1000 nM | Cc1cn2cc(NC(=O)c3cnc(O[C@H]4CCNC[C@H]4F)cn3)cc(F)c2n1 [Example 215]
500 to 1000 nM | Cc1cn2cc(NC(=O)c3cnc(N4CC5CNCC5C4)cn3)nc(C)c2n1 (stereo not drawn) [Example 59]
100 to 500 nM | Cc1nc2c(F)cc(NC(=O)c3cnc(N4CC[C@@H](NC5CC5)C4)cn3)cc2o1 [Example 260]
100 to 500 nM | Cc1cn2cc(NC(=O)c3cnc(N4CCC(CN(C)C)C4)cn3)cc(F)c2n1 (stereo not drawn) [Example 42]
500 to 1000 nM | Cc1cn2cc(NC(=O)c3cnc(N(C)[C@@H]4CCNC4)cn3)cc(F)c2n1 [Example 3]
100 to 500 nM | COc1nc(NC(=O)c2cnc(N3CCC(NC4CC4)C3)cn2)cn2cc(C)nc12 (stereo not drawn) [Example 84]
< 100 nM | Cc1cn2cc(NC(=O)c3cnc(N4CC([C@@H]5CCCCN5)C4)cn3)cc(F)c2n1 [Example 142, (S)—N-(8-fluoro-2-methylimidazo[1,2-a]pyridin-6-yl)-5-(3-(piperidin-2-yl)azetidin-1-yl)pyrazine-2-carboxamide]
1000 to 10000 nM | Cc1cn2cc(NC(=O)c3cnc(N4C[C@@H]5OC(=O)N(C6CC6)[C@@H]5C4)cn3)cc(F)c2n1 [Example 17]
100 to 500 nM | Cc1cn2cc(NC(=O)c3cnc(N4CCC5(CCN(C)C5)C4)cn3)cc(F)c2n1 (stereo not drawn) [Example 14]
100 to 500 nM | CCN[C@@H]1CCN(c2ncc(C(=O)Nc3cc(F)c4nc(C)cn4c3)cn2)C1 [Example 130]
100 to 500 nM | Cc1cn2cc(NC(=O)c3cnc(N4CC(CN5CC[C@@H](F)C5)C4)cn3)nc(C)c2n1 [Example 274, N-(2,8-dimethylimidazo[1,2-a]pyrazin-6-yl)-5-[3-[[(3R)-3-fluoropyrrolidin-1-yl]methyl]azetidin-1-yl]pyrazine-2-carboxamide]
100 to 500 nM | Cc1cn2cc(NC(=O)c3cnc(N4CC(CN5CC[C@H](F)C5)C4)cn3)cc(Cl)c2n1 [Example 342]
1000 to 10000 nM | Cc1cn2cc(NC(=O)c3cnc(N4CCNC[C@@H]4C)cn3)cc(F)c2n1 [Example 4]
1000 to 10000 nM | Cc1cn2cc(NC(=O)c3cnc(N4CCC5(CC4)CN(C)C5)cn3)cc(F)c2n1 [Example 8]
100 to 500 nM | CNC[C@H]1CCN(c2cnc(C(=O)Nc3cc(F)c4nc(C)cn4c3)cn2)C1 [Example 102]
500 to 1000 nM | Cc1cn2cc(NC(=O)c3cnc(N4CC(CN5CC[C@@H](F)C5)C4)cn3)cc(C)c2n1 [Example 276]
100 to 500 nM | Cc1cn2cc(NC(=O)c3cnc(N[C@@H]4CCNC[C@@H]4F)cn3)cc(F)c2n1 [Example 263, N-(8-fluoro-2-methylimidazo[1,2-a]pyridin-6-yl)-5-(((3S,4R)-3-fluoropiperidin-4-yl)amino)pyrazine-2-carboxamide]
100 to 500 nM | CN[C@@H]1CCN(c2cnc(C(=O)Nc3cc4cc(C)nn4cc3F)cn2)C1 [Example 177]
100 to 500 nM | CNC1(C2CN(c3cnc(C(=O)Nc4cc(F)c5nc(C)cn5c4)cn3)C2)CC1 [Example 208, N-(8-fluoro-2-methylimidazo[1,2-a]pyridin-6-yl)-5-(3-(1-(methylamino)cyclopropyl)azetidin-1-yl)pyrazine-2-carboxamide]
1000 to 10000 nM | CNC1CN(c2cnc(C(=O)Nc3cc4cn(C)nc4cc3OC)cn2)CC1F (racemic) [Example 94, 5-((3S*,4R*)-3-Fluoro-4-(methylamino)pyrrolidin-1-yl)-N-(6-methoxy-2-methyl-2H-indazol-5-yl)pyrazine-2-carboxamide]
100 to 500 nM | Cc1cn2cc(NC(=O)c3cnc(N4CCC(CN(C)C)C4)cn3)nc(C)c2n1 (stereo not drawn) [Example 63]
100 to 500 nM | Cc1cn2cc(NC(=O)c3cnc(N4CC5NCCC54)cn3)cc(F)c2n1 (stereo not drawn) [Example 308, 5-(2,6-diazabicyclo[3.2.0]heptan-6-yl)-N-(8-fluoro-2-methylimidazo[1,2-a]pyridin-6-yl)pyrazine-2-carboxamide]
100 to 500 nM | COc1cn2nc(C)cc2cc1NC(=O)c1cnc(N2CC[C@@H](NC3CC3)C2)cn1 [Example 182]
100 to 500 nM | COc1nc(NC(=O)c2cnc(N3CC[C@@H](CNC4CC4)C3)cn2)cn2cc(C)nc12 [Example 189, (S)-5-(3-((cyclopropylamino)methyl)pyrrolidin-1-yl)-N-(8-methoxy-2-methylimidazo[1,2-a]pyrazin-6-yl)pyrazine-2-carboxamide]
100 to 500 nM | COC1CN(CC2CN(c3cnc(C(=O)Nc4cn5cc(C)nc5c(C)n4)cn3)C2)C1 [Example 360, N-(2,8-dimethylimidazo[1,2-a]pyrazin-6-yl)-5-[3-[(3-methoxyazetidin-1-yl)methyl]azetidin-1-yl]pyrazine-2-carboxamide]
